{"source": "patent US11433052B2", "about": "“5-LOX and COX-2 inhibition for treatment in connection with blood-brain barrier dysfunction” (University of Kentucky Research Foundation, priority 2019, dated 2022)", "key": {"[1]": {"tested_on": "isolated rat brain capillaries", "assay": "Texas Red leakage assay, glutamate-mediated capillary leakage", "format": "cell-based", "conditions": "100 μM glutamate with 100 μM LCF", "experimental": "(§1) With reference to FIGS. 1A-1C, the effect of dual LOX-COX inhibition on glutamate-mediated capillary leakage was tested. Isolated rat brain capillaries were exposed to 100 μM glutamate with or without 100 μM of the dual LOX/COX inhibitor, licofelone (LCF)."}, "MMP-2": {"tested_on": "MMP-2", "assay": "Western blot of MMP-2 protein expression in capillaries exposed to glutamate", "format": "cell-based", "conditions": "isolated rat brain capillaries, 100 μM glutamate with 100 μM LCF", "experimental": "as §1, with “(LCF). […] FIG. 1A includes Western blots showing MMP-2 and MMP-9 protein expression in isolated rat brain capillaries exposed to 100 μM glutamate with or without LCF. β-Actin was used as protein loading control.” for “(LCF).”"}, "MMP-9": {"tested_on": "MMP-9", "assay": "Western blot of MMP-9 protein expression in capillaries exposed to glutamate", "format": "cell-based", "conditions": "isolated rat brain capillaries, 100 μM glutamate with 100 μM LCF", "experimental": "as §1, with “(LCF). […] FIG. 1A includes Western blots showing MMP-2 and MMP-9 protein expression in isolated rat brain capillaries exposed to 100 μM glutamate with or without LCF. β-Actin was used as protein loading control.” for “(LCF).”"}, "MMP": {"tested_on": "MMP", "assay": "MMP activity in isolated capillaries exposed to glutamate", "format": "cell-based, rat", "conditions": "100 μM glutamate with 100 μM LCF", "experimental": "as §1, with “(LCF). […] FIG. 1B is a bar graph illustrating MMP activity assessed in isolated capillaries exposed to 100 μM glutamate with or without LCF.” for “(LCF).”"}, "[2]": {"tested_on": "brain capillaries from pilocarpine-induced status epilepticus (SE) rats", "assay": "Texas Red leakage from capillary lumens, seizure-mediated capillary leakage in SE rats", "format": "in vivo, rat", "conditions": "10 mg/kg LCF i.p., 7 injections; capillaries isolated 2 d after SE-induction with pilocarpine", "experimental": "With reference to FIGS. 2A and 2B, the effect of dual LOX-COX inhibition on seizure-mediated capillary leakage was tested. Rats were treated with 10 mg/kg LCF (i.p., 7 injections). Capillaries were isolated 2 d after status epilepticus (SE)-induction with pilocarpine. Texas Red (TR) leakage from capillary lumens was monitored by confocal microscopy. Mannitol served as a positive control for barrier opening. (Hartz et al., 2012). Data includes mean±SEM (n=10 capillaries); arbitrary units (0-255). B) S100β ELISA (Millipore). Statistics: ***p<0.001 (ANOVA). […] With reference to FIGS. 4A and 4B, the effect of a combination of a LOX inhibitor and a COX inhibitor on seizure-mediated capillary leakage was tested. Rats were treated with zileuton (ZLT) and celecoxib (CEL) (5 mg/kg and 10 mg/kg; i.p., 7 injections). Capillaries were isolated 2 d after SE-induction with pilocarpine. Texas Red (TR) leakage from capillary lumens monitored by confocal microscopy (mannitol: positive control for barrier opening; Hartz et al., 2012). Data: mean±SEM (n=10 capillaries); arbitrary units (0-255)."}, "S100β": {"tested_on": "S100β", "assay": "Serum S100β ELISA in SE rats", "format": "in vivo, rat", "conditions": "7 injections, 2 d after SE-induction with pilocarpine", "experimental": "With reference to FIGS. 2A and 2B, the effect of dual LOX-COX inhibition on seizure-mediated capillary leakage was tested. Rats were treated with 10 mg/kg LCF (i.p., 7 injections). Capillaries were isolated 2 d after status epilepticus (SE)-induction with pilocarpine. Serum levels of S100β were assessed by ELISA (Millipore). Statistics: ***p<0.001 (ANOVA). Data: mean±SEM. […] The effect of dual LOX-COX inhibition on seizure-mediated capillary leakage was further tested in rates treated with either 5 mg/kg or 10 mg/kg LCF (i.p., 7 injections). Capillaries were isolated 2 d after SE-induction with pilocarpine. Serum levels of S100β were assessed by ELISA (Millipore). […] With reference to FIGS. 4A and 4B, the effect of a combination of a LOX inhibitor and a COX inhibitor on seizure-mediated capillary leakage was tested. Rats were treated with zileuton (ZLT) and celecoxib (CEL) (5 mg/kg and 10 mg/kg; i.p., 7 injections). Capillaries were isolated 2 d after SE-induction with pilocarpine. Serum levels of S100β were assessed by ELISA (Millipore). Statistics: ***p<0.001 (ANOVA). Data: mean±SEM."}}}
{"compound": "CC1(C)Cc2c(-c3ccccc3)c(-c3ccc(Cl)cc3)c(CC(=O)O)n2C1", "note": "[licofelone]", "values": [{"measurement": "glutamate-mediated capillary leakage (Texas Red leakage)", "setting": "[1]", "value": "reduced glutamate-mediated capillary leakage"}, {"measurement": "glutamate-mediated capillary leakage (Texas Red leakage)", "setting": "[1]; listed as LCF", "value": "glutamate-mediated barrier leakage reduction"}, {"measurement": "MMP-2 protein levels (Western blot)", "setting": "MMP-2", "value": "did not show increased protein levels"}, {"measurement": "MMP-9 protein levels (Western blot)", "setting": "MMP-9", "value": "did not show increased protein levels"}, {"measurement": "MMP activity", "setting": "MMP", "value": "did not show increased activity"}, {"measurement": "capillary leakage in SE rats (Texas Red leakage)", "setting": "[2]", "value": "prevents capillary leakage"}, {"measurement": "capillary leakage as reflected by S100β levels in serum from SE rats, dose dependence", "setting": "S100β; 5 mg/kg or 10 mg/kg LCF i.p.", "value": "inhibit capillary leakage in a dose-dependent manner"}, {"measurement": "S100β levels in serum from SE rats", "setting": "S100β; 10 mg/kg LCF i.p.", "value": "reduces S100β levels"}]}
